The target of experiment [1] is D(2) dopamine receptor (Rattus norvegicus) (UniProt P61169). Description: Inhibition of [3H]spiperone binding to rat striatal membrane Dopamine receptor D2.
Experiment [2] addresses D(1A) dopamine receptor (Rattus norvegicus) (UniProt P18901). Description: Inhibition of [3H]SCH-23390 binding to rat striatal membrane Dopamine receptor D1.
In experiment [3] the target is D(2) dopamine receptor (Rattus norvegicus) (UniProt P61169). Description: Affinity on C6 glioma cells transfected with Dopamine receptor D2L. Format: cell-based.
In experiment [4] the target is D(3) dopamine receptor (Rattus norvegicus) (UniProt P19020). The conditions noted are these: C6.
Description: Affinity on C6 glioma cells transfected with Dopamine receptor D3

Each structure is given as a SMILES string.

Chain of D(1A) dopamine receptor (Rattus norvegicus) (P18901 whole entry): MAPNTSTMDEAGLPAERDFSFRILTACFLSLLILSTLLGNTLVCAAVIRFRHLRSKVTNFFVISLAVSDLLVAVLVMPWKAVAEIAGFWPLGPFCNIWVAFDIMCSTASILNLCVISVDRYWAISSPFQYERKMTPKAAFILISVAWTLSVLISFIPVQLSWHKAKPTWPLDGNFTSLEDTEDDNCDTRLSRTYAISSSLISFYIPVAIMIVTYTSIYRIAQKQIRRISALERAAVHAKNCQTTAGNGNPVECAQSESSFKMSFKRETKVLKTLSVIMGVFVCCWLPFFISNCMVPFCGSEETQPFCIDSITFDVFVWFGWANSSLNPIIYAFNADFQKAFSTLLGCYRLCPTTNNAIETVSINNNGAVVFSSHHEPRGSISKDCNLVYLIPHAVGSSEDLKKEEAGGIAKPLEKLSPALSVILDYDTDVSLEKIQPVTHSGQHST
Chain of D(2) dopamine receptor (Rattus norvegicus) (P61169 whole entry): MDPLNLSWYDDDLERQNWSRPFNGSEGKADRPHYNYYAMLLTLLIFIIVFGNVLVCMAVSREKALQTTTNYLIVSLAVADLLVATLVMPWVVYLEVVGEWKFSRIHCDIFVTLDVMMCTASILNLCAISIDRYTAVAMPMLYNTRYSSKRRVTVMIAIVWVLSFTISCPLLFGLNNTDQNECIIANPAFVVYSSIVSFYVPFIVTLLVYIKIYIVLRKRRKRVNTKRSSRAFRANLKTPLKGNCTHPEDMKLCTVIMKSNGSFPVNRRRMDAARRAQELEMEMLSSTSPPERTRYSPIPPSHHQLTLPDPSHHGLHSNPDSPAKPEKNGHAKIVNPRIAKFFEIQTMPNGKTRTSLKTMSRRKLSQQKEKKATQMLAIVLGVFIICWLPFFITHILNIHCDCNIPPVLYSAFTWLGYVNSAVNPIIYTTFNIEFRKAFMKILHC
Chain of D(3) dopamine receptor (Rattus norvegicus) (P19020 whole entry): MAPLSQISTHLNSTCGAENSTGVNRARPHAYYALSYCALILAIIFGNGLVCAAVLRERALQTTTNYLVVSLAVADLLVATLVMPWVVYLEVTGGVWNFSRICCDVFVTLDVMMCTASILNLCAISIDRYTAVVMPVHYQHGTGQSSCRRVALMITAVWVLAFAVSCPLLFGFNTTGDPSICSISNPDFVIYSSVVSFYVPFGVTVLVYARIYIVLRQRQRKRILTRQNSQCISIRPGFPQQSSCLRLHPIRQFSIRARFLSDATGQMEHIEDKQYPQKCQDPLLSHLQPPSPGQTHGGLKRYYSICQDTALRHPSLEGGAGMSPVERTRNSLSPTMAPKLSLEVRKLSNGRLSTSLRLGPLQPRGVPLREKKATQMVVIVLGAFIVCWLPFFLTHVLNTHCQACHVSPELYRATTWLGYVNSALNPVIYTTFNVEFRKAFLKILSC

With `c1ccc2c(c1)CN[C@@H]1Cc3c[nH]nc3C[C@@H]21`, the K 0.5 is 641 nM in experiment [1], greater than 5 µM in experiment [2], greater than 5000 nM in experiment [3] and 955 nM in experiment [4].
Regarding `CCCN1Cc2ccccc2[C@@H]2Cc3n[nH]cc3C[C@H]21`, the K 0.5 in experiment [1] was 209 nM; in experiment [2] it was greater than 5 µM; in experiment [3] it was 4300 nM; in experiment [4] it was 162 nM.
Take `CCCN1Cc2ccccc2[C@@H]2Cc3nc(N)ncc3C[C@H]21`: the K 0.5 was 45 nM in experiment [1], greater than 5 µM in experiment [2], greater than 5000 nM in experiment [3] and 20.2 nM in experiment [4].
As for `CN1Cc2ccccc2[C@@H]2Cc3n[nH]cc3C[C@H]21`, the K 0.5 was 189 nM in experiment [1], greater than 5 µM in experiment [2], 3090 nM in experiment [3] and 187 nM in experiment [4].
As to `C=CCN1Cc2ccccc2[C@@H]2Cc3nc(N)ncc3C[C@H]21`, the K 0.5 in experiment [1] is 102 nM; in experiment [2] it was greater than 5 µM; in experiment [3] it was greater than 5000 nM; in experiment [4], 15.8 nM.
In experiment [2], `CN1CCc2cc(Cl)c(O)cc2[C@@H](c2ccccc2)C1` registered a K 0.5 of 0.0004 µM.
Take `Oc1cc2c(cc1O)[C@H]1c3ccccc3CN[C@@H]1CC2`: the results for the K 0.5 in experiment [3] and in experiment [4] were 1490 nM and 170 nM, respectively.
Take `C=CCN1Cc2ccccc2[C@@H]2Cc3n[nH]cc3C[C@H]21`: the K 0.5 in experiment [1] is 100 nM; in experiment [2], greater than 5 µM; in experiment [3], 1880 nM; in experiment [4], 73.7 nM.
With `Nc1ncc2c(n1)C[C@H]1c3ccccc3CN[C@@H]1C2`, the results for the K 0.5 in experiment [1], in experiment [2] and in experiment [4] were 467 nM, greater than 5 µM and 324 nM, respectively.
For the molecule `Oc1ccc2c(c1O)Cc1cccc3c1[C@H]2CNC3`, in experiment [3], the K 0.5 was found to be 174 nM.
As to `O=C(CCCN1CCC2(CC1)C(=O)NCN2c1ccccc1)c1ccc(F)cc1`, the K 0.5 in experiment [1] was 0.21 nM; in experiment [3], 0.16 nM.
Consider `CCCN1CCC[C@@H]2Cc3nc(N)ncc3C[C@H]21`, for which the K 0.5 is 4.78 nM in experiment [1], greater than 5 µM in experiment [2] and 710 nM in experiment [3].

These data come from ChEMBL document CHEMBL1132603.
